# Assay results taken from article PMC7031696 (Cell chemical biology, 2019).
# Test system: 3D7-MR4 trophozoite parasite-infected RBCs
# Test: Metabolomic profiling (hydrophilic metabolite changes, UHPLC-MS)
# Type: cell-based, Plasmodium falciparum
structure (smiles),measurement,setting,value
CC(C)(C)c1ccc2c(c1)CN(Cc1ccc(Cl)cc1)CO2 [MMV000442],peptide levels (hemoglobin catabolism signature),"10 × IC50^72h, 2.5 hr, trophozoites",decreased peptide levels
same,Log2(fold changes) 1_3-Bisphosphoglyceric acid,"metabolite 1_3-Bisphosphoglyceric acid, log2 fold change",0.0000
same,Log2(fold changes) 2-Hydroxy-2-methylbutanedioic acid,"metabolite 2-Hydroxy-2-methylbutanedioic acid, log2 fold change",0.0000
same,Log2(fold changes) 2-Isopropylmalic acid,"metabolite 2-Isopropylmalic acid, log2 fold change",0.0000
same,Log2(fold changes) 2-dehydro-D-gluconate,"metabolite 2-dehydro-D-gluconate, log2 fold change",0.0187
same,Log2(fold changes) 2-oxo-4-methylthiobutanoate,"metabolite 2-oxo-4-methylthiobutanoate, log2 fold change",0.0000
same,Log2(fold changes) 2_3-Diphosphoglyceric acid,"metabolite 2_3-Diphosphoglyceric acid, log2 fold change",0.0000
same,Log2(fold changes) 3-phosphoglycerate,"metabolite 3-phosphoglycerate, log2 fold change",0.1472
same,Log2(fold changes) 3-phosphoserine,"metabolite 3-phosphoserine, log2 fold change",-0.0388
same,Log2(fold changes) 4-Pyridoxic acid,"metabolite 4-Pyridoxic acid, log2 fold change",0.3454
same,Log2(fold changes) 4-aminobutyrate,"metabolite 4-aminobutyrate, log2 fold change",-0.2887
same,Log2(fold changes) 4-phosphopantetheine,"metabolite 4-phosphopantetheine, log2 fold change",0.0000
same,Log2(fold changes) 4-phosphopantothenate,"metabolite 4-phosphopantothenate, log2 fold change",-0.1668
same,Log2(fold changes) 5-aminopentanoic acid,"metabolite 5-aminopentanoic acid, log2 fold change",-0.5922
same,Log2(fold changes) 5-methyl-THF,"metabolite 5-methyl-THF, log2 fold change",0.0000
same,Log2(fold changes) 5-phosphoribosyl-1-pyrophosphate,"metabolite 5-phosphoribosyl-1-pyrophosphate, log2 fold change",0.0000
same,Log2(fold changes) 6-phospho-D-gluconate,"metabolite 6-phospho-D-gluconate, log2 fold change",-0.0694
same,Log2(fold changes) ADP-D-glucose,"metabolite ADP-D-glucose, log2 fold change",0.0000
same,Log2(fold changes) Acetyl-glycine,"metabolite Acetyl-glycine, log2 fold change",0.0000
same,Log2(fold changes) Acetyllysine,"metabolite Acetyllysine, log2 fold change",-2.4239
same,Log2(fold changes) Aminoadipic acid,"metabolite Aminoadipic acid, log2 fold change",0.6779
same,Log2(fold changes) CDP,"metabolite CDP, log2 fold change",-0.1566
same,Log2(fold changes) CDP-choline,"metabolite CDP-choline, log2 fold change",0.0000
same,Log2(fold changes) CDP-ethanolamine,"metabolite CDP-ethanolamine, log2 fold change",0.0000
same,Log2(fold change) of CMP,metabolite CMP,-0.4256
same,Log2(fold change) of CTP,metabolite CTP,0.0000
same,Log2(fold changes) Citraconic acid,"metabolite Citraconic acid, log2 fold change",0.0000
same,Log2(fold change) of D-glucarate,metabolite D-glucarate,0.0000
same,Log2(fold change) of D-gluconate,metabolite D-gluconate,0.0000
same,Log2(fold change) of D-glucosamine-1/6-phosphate,metabolite D-glucosamine-1/6-phosphate,0.0000
same,Log2(fold change) of D-sedoheptulose-1/7-phosphate,metabolite D-sedoheptulose-1/7-phosphate,0.0894
same,Log2(fold change) of DL-Pipecolic Acid,metabolite DL-Pipecolic Acid,-2.3554
same,Log2(fold change) of DLH,metabolite DLH,-3.0002
same,Log2(fold change) of DLS,metabolite DLS,0.0000
same,Log2(fold change) of Decanoyl-CoA,metabolite Decanoyl-CoA,0.0000
same,Log2(fold change) of EV,metabolite EV,0.0000
same,Log2(fold change) of FAD,metabolite FAD,0.0825
same,Log2(fold change) of FMN,metabolite FMN,0.2444
same,Log2(fold change) of G3P/DHAP,metabolite G3P/DHAP,0.3715
same,Log2(fold change) of GDP,metabolite GDP,-0.4064
same,Log2(fold change) GMP,metabolite GMP,-0.5023
same,Log2(fold change) GTP,metabolite GTP,0.0000
same,Log2(fold change) HVDD,metabolite HVDD,0.0000
same,Log2(fold change) Hexose,metabolite Hexose,0.5242
same,Log2(fold change) Hydroxyisocaproic acid,metabolite Hydroxyisocaproic acid,0.0000
same,Log2(fold change) IDP,metabolite IDP,0.0000
same,Log2(fold change) IMP,metabolite IMP,-0.3808
same,Log2(fold change) Inositol,metabolite Inositol,0.0000
same,Log2(fold change) Isopentyl-PP,metabolite Isopentyl-PP,0.0000
same,Log2(fold change) L-arginino-succinate,metabolite L-arginino-succinate,-0.9153
same,Log2(fold change) LD,metabolite LD,0.0782
same,Log2(fold change) Myristoyl/tetradecanoyl-CoA,metabolite Myristoyl/tetradecanoyl-CoA,0.0000
same,Log2(fold change) N-Acetyl-L-alanine,metabolite N-Acetyl-L-alanine,-0.8745
same,Log2(fold change) N-acetyl-L-ornithine,metabolite N-acetyl-L-ornithine,-2.0207
same,Log2(fold change) N-acetyl-glucosamine-1/6-phosphate,metabolite N-acetyl-glucosamine-1/6-phosphate,0.0000
same,Log2(fold change) N-acetyl-glutamate,metabolite N-acetyl-glutamate,0.2896
same,Log2(fold change) N-acetyl-glutamine,metabolite N-acetyl-glutamine,-0.5645
same,Log2(fold change) N-carbamoyl-L-aspartate,metabolite N-carbamoyl-L-aspartate,-1.7487
same,Log2(fold change) NAD+,metabolite NAD+,-0.0829
same,Log2(fold change) NADH,metabolite NADH,0.7233
same,Log2(fold change) NADP+,metabolite NADP+,0.2722
same,Log2(fold change) NADPH,metabolite NADPH,0.0000
same,Log2(fold change) O-acetyl-L-serine,metabolite O-acetyl-L-serine,0.0000
same,Log2(fold change) Octoluse 8/1P,metabolite Octoluse 8/1P,0.0000
same,Log2(fold change) Octoluse Bisphosphate,metabolite Octoluse Bisphosphate,-0.1456
same,Log2(fold change) PD,metabolite PD,-3.3951
same,Log2(fold change) PE,metabolite PE,-2.6495
same,Log2(fold change) PEE,metabolite PEE,-3.0239
same,Log2(fold change) PEEK,metabolite PEEK,-4.4264
same,Log2(fold change) PVNF,metabolite PVNF,-3.4246
same,Log2(fold change) Pyroglutamic acid,metabolite Pyroglutamic acid,-0.3004
same,Log2(fold change) Pyrophosphate,metabolite Pyrophosphate,0.0000
same,Log2(fold change) Ribose-5-phosphate,metabolite Ribose-5-phosphate,-0.0687
same,Log2(fold change) S-adenosyl-L-homocysteine,metabolite S-adenosyl-L-homocysteine,-0.3299
same,Log2(fold change) S-adenosyl-L-methioninamine,metabolite S-adenosyl-L-methioninamine,0.0000
same,Log2(fold change) S-adenosyl-L-methionine,metabolite S-adenosyl-L-methionine,0.0000
same,Log2(fold change) S-methyl-5'-thioadenosine,metabolite S-methyl-5'-thioadenosine,0.0000
same,Log2(fold change) SD,metabolite SD,0.0000
same,Log2(fold change) SDL,metabolite SDL,0.0000
same,Log2(fold change) SID,metabolite SID,0.0000
same,Log2(fold change) Sedoheptulose bisphosphate,metabolite Sedoheptulose bisphosphate,-0.0816
same,Log2(fold change) Thiamine pyrophosphate,metabolite Thiamine pyrophosphate,0.0000
same,Log2(fold changes) UDP-D-glucose,"metabolite UDP-D-glucose, log2 fold change",0.1178
same,Log2(fold changes) UDP-D-glucuronate,"metabolite UDP-D-glucuronate, log2 fold change",0.0275
same,Log2(fold changes) UDP-N-acetyl-glucosamine,"metabolite UDP-N-acetyl-glucosamine, log2 fold change",-0.1255
same,Log2(fold changes) UDP,"metabolite UDP, log2 fold change",-0.3330
same,Log2(fold changes) UMP,"metabolite UMP, log2 fold change",-0.0965
same,Log2(fold changes) UTP,"metabolite UTP, log2 fold change",0.0000
same,Log2(fold changes) VD,"metabolite VD, log2 fold change",0.0000
same,Log2(fold changes) Xanthurenic acid,"metabolite Xanthurenic acid, log2 fold change",0.0000
same,Log2(fold changes) a-ketoglutarate,"metabolite a-ketoglutarate, log2 fold change",-0.2716
same,Log2(fold changes) acetyl-CoA,"metabolite acetyl-CoA, log2 fold change",0.0000
same,Log2(fold changes) acetyl-aspartate,"metabolite acetyl-aspartate, log2 fold change",-0.0302
same,Log2(fold changes) acetylphosphate,"metabolite acetylphosphate, log2 fold change",0.6335
same,Log2(fold changes) aconitate,"metabolite aconitate, log2 fold change",-0.3057
same,Log2(fold changes) adenine,"metabolite adenine, log2 fold change",0.0000
same,Log2(fold changes) adenosine 5'-phosphosulfate,"metabolite adenosine 5'-phosphosulfate, log2 fold change",-0.0782
